Data on two molecules can be found in PMC7217877, “N-AS-triggered SPMs are direct regulators of microglia in a model of Alzheimer’s disease” (Nature Communications, 2020).

For one test, the system named is COX2. The test is described as follows: SphK1-mediated COX2 acetylation with [14C] acetyl-CoA (ATP competition, SphK1 mutants; Supplementary Fig 1h,i). Format: biochemical, human. To be noted: COX2 +. The source says: Single point mutations in SphK1 (R56A, R57A, R24A, R185A, D178A, and F192A) and COX2 (S565A, N181A, T564A, and S567A) were generated using the In-Fusion Cloning Kits (Clontech) and ORF cDNA expression plasmids of human SphK1 and COX2 gene (Sino Biological Inc, HG15679-NH and HG12036-NH), according to the manufacturer’s instructions. The forward and reverse primers described in Supplementary Table 4. The SphK1 WT, SphK1 mutants, COX2 WT, and COX2 mutant plasmids were transformed in the One shot TOP 10 competent cell (Invitrogen). The bacteria were grown in Luria-Bertani (LB, Invitrogen) plates supplemented with 50 μg ml^−1 kanamycin (Sigma-Aldrich) at 37 °C. The bacterial cell pellets were resuspended in lysis buffer containing 20 mM sodium phosphate (GE Healthcare), 500 mM NaCl (GE Healthcare), 20 mM imidazole (pH 7.4) (GE Healthcare), 0.2 mg ml^−1 lysozyme (Sigma-Aldrich), 20 μg ml^−1 DNase I (Roche), 1 mM MgCl2 (Sigma-Aldrich), and 1 mM PMSF (Sigma-Aldrich) before being lysed by sonication and clarified by centrifugation at 15,493×g for 10 min. Proteins were purified from the soluble fraction using His-Spin Trap columns (GE Healthcare) and the binding and acetylation assays were performed.
Acetylation assays were performed according to previously described procedures with minor modifications. […] N-AS (2 μCi, ARC UK Ltd, ARC-1024) at 37 °C for 2 h. [^14C] aspirin (2 μCi, ARC UK Ltd, ARC-0473) was conducted as the positive control. The reactions were terminated by placing the reaction tubes in ice for 5 min. To evaluate in vivo neuronal and microglial COX2 acetylation, 10 μCi [^14C] N-AS was orally administrated to 9-months-old WT and APP/PS1 mice. After 1 h, neuron and microglia were isolated and sonicated in culture media. To immunoprecipitate acetylated COX2, the sample was incubated with COX2 antibody (Abcam, ab15191) at 4 °C for 24 h and precipitated by adding 50 μl of protein-A sepharose (GE Healthcare). Acetylated COX2 proteins bound to the beads were analyzed using a Tri-Carb 3110TR liquid scintillation counter (Perkin-Elmer).

Another test deals with T1, COX2 WT (Homo sapiens, UniProt P35354).
T1 construct: His (N); made in house
T1 sequence (P35354 18-604): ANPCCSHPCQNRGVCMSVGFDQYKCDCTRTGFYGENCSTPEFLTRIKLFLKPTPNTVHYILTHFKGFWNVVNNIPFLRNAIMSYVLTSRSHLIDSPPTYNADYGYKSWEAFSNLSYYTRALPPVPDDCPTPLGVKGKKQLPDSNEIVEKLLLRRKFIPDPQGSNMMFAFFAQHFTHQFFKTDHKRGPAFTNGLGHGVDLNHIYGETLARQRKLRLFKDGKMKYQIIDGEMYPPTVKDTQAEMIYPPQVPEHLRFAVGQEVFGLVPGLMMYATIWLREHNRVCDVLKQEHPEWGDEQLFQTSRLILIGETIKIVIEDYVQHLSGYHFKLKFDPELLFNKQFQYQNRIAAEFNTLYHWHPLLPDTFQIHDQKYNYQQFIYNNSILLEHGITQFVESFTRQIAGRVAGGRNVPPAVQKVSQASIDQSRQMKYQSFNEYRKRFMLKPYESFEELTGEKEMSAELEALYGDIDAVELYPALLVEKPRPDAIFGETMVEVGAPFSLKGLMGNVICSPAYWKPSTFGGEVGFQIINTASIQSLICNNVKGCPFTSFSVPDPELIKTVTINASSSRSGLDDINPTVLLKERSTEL
The test is described as follows: in vitro [14C] acetylation assay of purified COX2. It counts as biochemical. The arrangement: C14 radioactivity of COX2, acetylation assay (Fig 1h): unit not given here. The procedure:
Acetylation assays were performed according to previously described procedures with minor modifications. […] To confirm the N-AS-mediated COX2 acetylation, 10 μg COX2 (WT or mutants) was used incubated with [^14C] N-AS (2 μCi, ARC UK Ltd, ARC-1024) at 37 °C for 2 h. [^14C] aspirin (2 μCi, ARC UK Ltd, ARC-0473) was conducted as the positive control. The reactions were terminated by placing the reaction tubes in ice for 5 min. To evaluate in vivo neuronal and microglial COX2 acetylation, 10 μCi [^14C] N-AS was orally administrated to 9-months-old WT and APP/PS1 mice. After 1 h, neuron and microglia were isolated and sonicated in culture media. To immunoprecipitate acetylated COX2, the sample was incubated with COX2 antibody (Abcam, ab15191) at 4 °C for 24 h and precipitated by adding 50 μl of protein-A sepharose (GE Healthcare). Acetylated COX2 proteins bound to the beads were analyzed using a Tri-Carb 3110TR liquid scintillation counter (Perkin-Elmer).

Where “and” joins values, the source holds several entries; their conditions need not be identical. Equal entries are not always repeated.

For `CC(=O)SCCNC(=O)CCNC(=O)[C@H](O)C(C)(C)COP(=O)(O)OP(=O)(O)OC[C@H]1O[C@@H](n2cnc3c(N)ncnc32)[C@H](O)[C@@H]1OP(=O)(O)O` [Acetyl-CoA, acetyl-CoA], the “COX2 acetylation with C14 Acetyl CoA (sFig 1i)” value with COX2 (Acetyl transfer: SphK1, Sph, ATP, listed as C14 Acetyl CoA) was 10456 and 10500 and 10758 and 10726; in the test on COX2 (Acetyl transfer: SphK1, Sph, listed as C14 Acetyl CoA), 19270 and 24354 and 19216 and 24474 and 19218 and 24370; with COX2 (Acetyl transfer: SphK1, listed as C14 Acetyl CoA) it was 11878 and 13132 and 13238 and 13414 and 13230; in the test on COX2 (Acetyl transfer: SphK1 R24A, Sph, listed as C14 Acetyl CoA), 12532 and 11618 and 11452 and 12034 and 12526 and 12014; with COX2 (Acetyl transfer: SphK1 R56A, Sph, listed as C14 Acetyl CoA), 9992 and 10060 and 9758 and 9780 and 9270 and 10086; in the test on COX2 (Acetyl transfer: SphK1 R57A, Sph, listed as C14 Acetyl CoA), 14380 and 14360 and 14338 and 14310 and 14334 and 14376. The “COX2 acetylation with C14 Acetyl CoA (sFig 1i)” value was 10222 and 9944 and 10214 and 10110 and 9988 with COX2 (Acetyl transfer: SphK1 R185A, Sph, listed as C14 Acetyl CoA); 2366 and 2614 and 2946 and 2710 and 2880 and 2156 with COX2 (C14 Acetyl CoA +, Acetyl transfer -).
Turning to `CCCCCCCCCCCCC/C=C/[C@@H](O)[C@H](CO)NC(C)=O` [N-AS, N-((2S,3R,E)-1,3-Dihydroxyoctadec-4-en-2-yl)acetamide], the “C14 radioactivity of COX2, acetylation assay (Fig 1h)” value at COX2 WT (COX2 WT, replicates, listed as C14 N-AS) is 278534 and 277829 and 277497 and 262864 and 273318 and 276027. Moreover, the “COX2 acetylation level, in words” value at COX2 WT ([14C] N-AS vs aspirin or SphK1-mediated acetylation) is recorded as “higher-level acetylation”.
